This passage reports MIC results from DBAASP.

≈ marks a conversion by molar mass, not a printed value. Where “and” joins values, the source holds several entries; their conditions need not be identical. Equal values may be shown once.

Broadly, the MIC is the lowest concentration that inhibits growth of the organism. Lower therefore signals a more susceptible organism.

Among the test systems are Aureobasidium pullulans; Bacillus megaterium; Micrococcus luteus.
What all share (assay): ≥ marks a high value that may be exact or a test limit, other limits are often not marked, values filed in µg/mL are converted to µM
Assay [1] has as its system Escherichia coli ATCC 25922.
Assay [2] concerns Bacillus subtilis ATCC 23857.
Assay [3] deals with Candida albicans ATCC 10231.
For assay [4], the system named is Staphylococcus aureus ATCC 9144.
In assay [5] the test system is Corynebacterium glutamicum ATCC 13032.
In assay [6] the test system is Pseudomonas aeruginosa ATCC 27853.
Assay [7] concerns Candida parapsilosis CCARM 14016.
Assay [8] deals with Fusarium verticillioides KCTC 6149.
Assay [9] concerns Fusarium oxysporum KCTC 16909.
In assay [10] the test system is Candida krusei CCARM 14017.
For assay [11], the system named is Candida albicans KCTC 7270.
For assay [12], the system named is Candida tropicalis KCTC 7221.
For assay [13], the system named is Candida albicans ATCC 90028.
Assay [14] concerns Bacillus subtilis ATCC 6051.
Assay [15] deals with Staphylococcus aureus ATCC 6538.
Assay [16] deals with Pseudomonas aeruginosa ATCC 15442.
The test system of assay [17] is Staphylococcus aureus ATCC 29213.
For assay [18], the system named is Streptococcus pneumoniae ATCC 700677.
Assay [19] relates to Acinetobacter baumannii ATCC 19606.
In assay [20] the test system is Cryptococcus neoformans ATCC 208821.
The subject of assay [21] is Staphylococcus aureus VRSA1.
The subject of assay [22] is Bacillus subtilis CCT 2576.
Assay [23] has as its system Candida tropicalis ATCC 750.
Assay [24] deals with Klebsiella pneumoniae ATCC 700603.
For assay [25], the system named is Bacillus megaterium ATCC 13632.
In assay [26] the test system is Enterococcus faecium ATCC 35667.
Assay [27] deals with Staphylococcus aureus ATCC 43300.
Assay [28] has as its system Pseudomonas aeruginosa LMG 6395.
Assay [29] deals with Klebsiella pneumoniae LMG 20218.
The subject of assay [30] is Acinetobacter baumannii LMG 01041.
For assay [31], the system named is Klebsiella aerogenes LMG 02094.
Assay [32] deals with Escherichia coli LMG 15862.
Assay [33] relates to Escherichia coli NEB5alpha.

Consider `C[C@H](NC(=O)[C@H](CCCCN)NC(=O)[C@H](Cc1c[nH]c2ccccc12)NC(=O)[C@H](Cc1c[nH]c2ccccc12)NC(=O)CNC(=O)[C@H](Cc1c[nH]c2ccccc12)NC(=O)[C@H](CCCCN)NC(=O)[C@H](CCCCN)NC(=O)CN)C(=O)N[C@@H](CCCCN)C(N)=O` [GKKWGWWKAK], for which the MIC is 49 µM (≈ 62.5 µg/mL) in [1]; not below 49 µM with Aureobasidium pullulans; 3.06 µM (≈ 3.9 µg/mL) in assay [2]; 49 µM (≈ 62.5 µg/mL) in assay [3]; not below 196 µM in assay [4]; 3.06 µM (≈ 3.9 µg/mL) in assay [5]. Moreover, the MIC is 0.785 µM (≈ 0.999 µg/mL) against Bacillus megaterium, not below 49 µM with Micrococcus luteus and more than 196 µM in assay [6].
With `CC[C@H](C)[C@H](NC(=O)[C@H](C)NC(=O)[C@H](CCC(=O)O)NC(=O)[C@H](Cc1cnc[nH]1)NC(=O)[C@H](CCCCN)NC(=O)CNC(=O)[C@H](CCC(N)=O)NC(=O)[C@H](CCCCN)NC(=O)[C@@H](NC(=O)[C@H](CCCCN)NC(=O)[C@H](CCCCN)NC(=O)[C@H](CC(C)C)NC(=O)[C@H](C)NC(=O)[C@H](CC(N)=O)NC(=O)[C@H](CC(C)C)NC(=O)CN)C(C)C)C(=O)N[C@@H](CCCCN)C(=O)N[C@@H](CC(C)C)C(=O)N[C@H](C(=O)N[C@@H](CC(N)=O)C(=O)N[C@@H](CC(N)=O)C(=O)N[C@@H](Cc1cnc[nH]1)C(=O)N[C@H](C(=O)N[C@@H](CCC(N)=O)C(N)=O)C(C)C)[C@@H](C)CC` [GLNALKKVKQGKHEAIKLINNHVQ], the MIC in assay [7] is not below 64 µM; in assay [8], not below 64 µM; in assay [9] it was 6 µM and 16 µM; in assay [10], ≥ 48 µM and 16 µM; in assay [11] it was not below 64 µM; in assay [12], 8 µM and 16 µM.
Turning to `CC[C@H](C)[C@H](N)C(=O)N[C@@H](CC(N)=O)C(=O)N[C@@H](Cc1c[nH]c2ccccc12)C(=O)N[C@@H](CC(C)C)C(=O)N[C@@H](CCCCN)C(=O)N[C@@H](CC(C)C)C(=O)NCC(=O)N[C@@H](CCCCN)C(=O)N[C@@H](C)C(=O)N[C@H](C(=O)N[C@H](C(=O)N[C@@H](CC(=O)O)C(=O)N[C@@H](C)C(=O)N[C@@H](CC(C)C)C(N)=O)[C@@H](C)CC)[C@@H](C)CC` [INWLKLGKAIIDAL], the minimum inhibitory concentration (MIC) in assay [13] was 7.22 µM (≈ 11.3 µg/mL); in [14], 2.55 µM (≈ 4 µg/mL); in [15] it was 122 µM (≈ 191 µg/mL); in assay [16] it was not below 164 µM; in assay [17], 5.1 µM (≈ 8 µg/mL); in assay [18], 5.1 µM (≈ 8 µg/mL). In addition, the MIC in assay [19] was 5.1 µM (≈ 8 µg/mL); in [20] it was 2.55 µM (≈ 4 µg/mL); in assay [21] it was 3.61 µM (≈ 5.65 µg/mL); in assay [22], not below 151 µM; in [23], 1.28 µM (≈ 2 µg/mL); in assay [24] it was 81.6 µM (≈ 128 µg/mL). The minimum inhibitory concentration (MIC) in [25] turned out to be 2.55 µM (≈ 4 µg/mL); in assay [6], 115 µM (≈ 181 µg/mL); in assay [26] it was 3.61 µM (≈ 5.65 µg/mL); in [27] it was 5.1 µM (≈ 8 µg/mL).
For the molecule `CC[C@H](C)[C@H](NC(=O)[C@H](CCCN=C(N)N)NC(=O)[C@H](CCC(N)=O)NC(=O)[C@@H](NC(=O)[C@@H](NC(=O)[C@@H](N)CCCN=C(N)N)[C@@H](C)CC)C(C)C)C(=O)N[C@@H](CCCCN)C(=O)N[C@@H](CCCCN)C(=O)N[C@@H](Cc1c[nH]c2ccccc12)C(=O)N[C@@H](CC(C)C)C(N)=O` [RIVQRIKKWL], the MIC is 16 µM (≈ 21.4 µg/mL) in assay [28]; not below 64 µM in assay [29]; not below 128 µM in [30]; not below 256 µM in [31]; not below 32 µM in assay [32].
On to `CC[C@H](C)[C@H](NC(=O)[C@H](C)NC(=O)CNC(=O)[C@H](CCCCN)NC(=O)[C@H](CCC(=O)O)NC(=O)[C@H](CCC(=O)O)NC(=O)[C@H](CC(=O)O)NC(=O)[C@H](CCC(=O)O)NC(=O)[C@H](CC(=O)O)NC(=O)[C@H](CCCN=C(N)N)NC(=O)CNC(=O)[C@H](CCC(N)=O)NC(=O)[C@H](CC(C)C)NC(=O)[C@H](CCCCN)NC(=O)[C@H](CC(=O)O)NC(=O)[C@@H](NC(=O)[C@@H](NC(=O)[C@H](Cc1cnc[nH]1)NC(=O)[C@H](CCCN=C(N)N)NC(=O)[C@H](CC(N)=O)NC(=O)[C@@H](N)C(C)C)[C@@H](C)CC)C(C)C)C(=O)N[C@H](C(=O)N[C@@H](CCCCN)C(=O)N[C@H](C(=O)N[C@@H](CCCCN)C(=O)NCC(=O)NCC(=O)N[C@@H](CC(C)C)C(=O)O)C(C)C)C(C)C` [VNRHIVDKLQGRDEDEEKGAIVKVKGGL], for which the MIC in assay [14] and in assay [33] was not below 500 µM in each case.
